Here are results for 28 compounds from patent US7495018B2, “Substituted 1,3-thiazole compounds, their production and use” (Takeda Pharmaceutical Company Limited, priority 2000, dated 2009).

In general, melting point refers to the temperature, or range, at which the solid turns liquid. Take `Cc1cccc(-c2nc(-c3ccc(Cl)cc3)sc2-c2ccnc(C)c2)c1` [Example Compound 14-2, 2-(4-chlorophenyl)-4-(3-methylphenyl)-5-(2-methyl-4-pyridyl)-1,3-thiazole]: the melting point lay in the range of 104 to 105 °C.

`Cc1cccc(-c2nc(-c3ccccc3F)sc2-c2ccnc(C)c2)c1` [Example Compound 14-3, 2-(2-fluorophenyl)-4-(3-methylphenyl)-5-(2-methyl-4-pyridyl)-1,3-thiazole] showed a melting point of 73 to 74 °C.

On to `Cc1cccc(-c2nc(-c3ccc(F)cc3)sc2-c2ccnc(C)c2)c1` [Example Compound 14-4, 2-(4-fluorophenyl)-4-(3-methylphenyl)-5-(2-methyl-4-pyridyl)-1,3-thiazole], for which the melting point is 89 to 91 °C.

For the compound `Cc1cccc(-c2nc(-c3ccc(F)cc3F)sc2-c2ccnc(C)c2)c1` [Example Compound 14-5, 2-(2,4-difluorophenyl)-4-(3-methylphenyl)-5-(2-methyl-4-pyridyl)-1,3-thiazole], the melting point was in the range of 90 to 91 °C.

The compound `Cc1cccc(-c2nc(-c3ccccc3)sc2-c2ccnc(C)c2)c1` [Example Compound 14-6, 4-(3-methylphenyl)-5-(2-methyl-4-pyridyl)-2-phenyl-1,3-thiazole] gave a melting point of 79 to 80 °C.

Take `Cc1cccc(-c2nc(Cc3ccccc3)sc2-c2ccnc(C)c2)c1` [Example Compound 14-7, 4-(3-methylphenyl)-5-(2-methyl-4-pyridyl)-2-(phenylmethyl)-1,3-thiazole]: the melting point lay in the range of 82 to 84 °C.

In the case of `Cc1cccc(-c2nc(CCc3ccccc3)sc2-c2ccnc(C)c2)c1` [Example Compound 14-8, 4-(3-methylphenyl)-5-(2-methyl-4-pyridyl)-2-(2-phenylethyl)-1,3-thiazole], the melting point is 64 to 65 °C.

The compound `CCOC(=O)c1nc(-c2cccc(C)c2)c(-c2ccnc(C)c2)s1` [Example Compound 14-12, Ethyl [4-(3-methylphenyl)-5-(2-methyl-4-pyridyl)-1,3-thiazol-2-yl]carboxylate] returned a melting point of 97 to 98 °C.

For `Cc1cccc(-c2nc(N3CCN(C)CC3)sc2-c2ccnc(C)c2)c1` [Example Compound 14-13, 4-(3-methylphenyl)-2-(4-methylpiperazin-1-yl)-5-(2-methyl-4-pyridyl)-1,3-thiazole], the melting point was 115 to 116 °C.

Consider `Cc1cccc(-c2nc(N3CCN(C)CC3)sc2-c2ccnc(C)c2)c1` [Example Compound 14-14, 4-(3-methylphenyl)-2-(1-methylpiperazin-4-yl)-5-(2-methyl-4-pyridyl)-1,3-thiazole], for which the melting point lay within 127 to 130 °C.

In turn, `CSc1ccc(-c2nc(-c3cccc(C)c3)c(-c3ccnc(F)c3)s2)cc1` [Example Compound 15, 5-(2-fluoro-4-pyridyl)-4-(3-methylphenyl)-2-[4-(methylthio)phenyl]-1,3-thiazole] gave a melting point of 97 to 100 °C.

The compound `CSc1ccc(-c2nc(-c3cccc(C)c3)c(-c3ccnc(C)c3)s2)cc1` [Example Compound 16-1, 4-(3-methylphenyl)-5-(2-methyl-4-pyridyl)-2-[4-(methylthio)phenyl]-1,3-thiazole] returned a melting point of 119 to 122 °C.

The compound `CSc1ccc(-c2nc(-c3cc(C)cc(C)c3)c(-c3ccnc(C)c3)s2)cc1` [Example Compound 16-2, 4-(3,5-dimethylphenyl)-5-(2-methyl-4-pyridyl)-2-[4-(methylthio)phenyl]-1,3-thiazole] showed a melting point of 123 to 125 °C.

The compound `CSc1ccc(-c2nc(-c3cccc(C)c3)c(-c3cc(C)nc(C)c3)s2)cc1` [Example Compound 16-3, 5-(2,6-dimethyl-4-pyridyl)-4-(3-methylphenyl)-2-[4-(methylthio)phenyl]-1,3-thiazole] gave a melting point of 112 to 114 °C.

`CSc1ccc(-c2nc(-c3cc(C)cc(C)c3)c(-c3cc(C)nc(C)c3)s2)cc1` [Example Compound 16-4, 4-(3,5-dimethylphenyl)-5-(2,6-dimethyl-4-pyridyl)-2-[4-(methylthio)phenyl]-1,3-thiazole] yielded a melting point of 134 to 136 °C.

In turn, `CSc1ccc(-c2nc(-c3ccc(F)cc3)c(-c3ccnc(C)c3)s2)cc1` [Example Compound 16-5, 4-(4-fluorophenyl)-5-(2-methyl-4-pyridyl)-2-[4-(methylthio)phenyl]-1,3-thiazole] gave a melting point of 99 to 100 °C.

Compound `Cc1cccc(-c2nc(-c3ccc(F)cc3)sc2-c2ccnc(N)c2)c1` [Example Compound 18-1, 4-[2-(4-fluorophenyl)-4-(3-methylphenyl)-1,3-thiazol-5-yl]-2-pyridylamine] displayed a melting point of 160 to 162 °C.

In the case of `Cc1cccc(-c2nc(CC(F)(F)F)sc2-c2ccnc(N)c2)c1` [Example Compound 18-3, 4-[4-(3-methylphenyl)-2-(2,2,2-trifluoroethyl)-1,3-thiazol-5-yl]-2-pyridylamine], the melting point was in the range of 131 to 132 °C.

`CCCc1nc(-c2cccc(C)c2)c(-c2ccnc(N)c2)s1` [Example Compound 18-4, 4-[4-(3-methylphenyl)-2-propyl-1,3-thiazol-5-yl]-2-pyridylamine]: the melting point lay within 113 to 115 °C.

On to `CCOC(=O)Cc1nc(-c2cccc(C)c2)c(-c2ccnc(N)c2)s1` [Example Compound 18-5, Ethyl [5-(2-amino-4-pyridyl)-4-(3-methylphenyl)-1,3-thiazol-2-yl]acetate], for which the melting point was 128 to 129 °C.

For `CCOC(=O)c1nc(-c2cccc(C)c2)c(-c2ccnc(N)c2)s1` [Example Compound 18-6, Ethyl [5-(2-amino-4-pyridyl)-4-(3-methylphenyl)-1,3-thiazol-2-yl]carboxylate], the melting point lay in the range of 147 to 148 °C.

In turn, `CCc1nc(-c2cccc(Cl)c2)c(-c2ccnc(N)c2)s1` [Example Compound 20-1, 4-[2-ethyl-4-(3-chlorophenyl)-1,3-thiazol-5-yl]-2-pyridylamine] yielded a melting point of 132 to 133 °C.

For the compound `CCc1nc(-c2ccccc2)c(-c2ccnc(N)c2)s1` [Example Compound 20-2, 4-(2-ethyl-4-phenyl-1,3-thiazol-5-yl)-2-pyridylamine], the melting point is 158 to 159 °C.

For the compound `CCc1nc(-c2ccc(F)cc2)c(-c2ccnc(N)c2)s1` [Example Compound 20-3, 4-[2-ethyl-4-(4-fluorophenyl)-1,3-thiazol-5-yl]-2-pyridylamine], the melting point was 140 to 141 °C.

Take `CCc1nc(-c2cccc(C(F)(F)F)c2)c(-c2ccnc(N)c2)s1` [Example Compound 20-4, 4-[2-ethyl-4-[3-(trifluoromethyl)phenyl]-1,3-thiazol-5-yl]-2-pyridylamine]: the melting point lay within 117 to 118 °C.

On to `CCc1nc(-c2ccc(SC)cc2)c(-c2ccnc(N)c2)s1` [Example Compound 20-5, 4-[2-ethyl-4-[4-(methylthio)phenyl]-1,3-thiazol-5-yl]-2-pyridylamine], for which the melting point was 119 to 120 °C.

`CCc1nc(-c2cccc(F)c2)c(-c2ccnc(N)c2)s1` [Example Compound 20-6, 4-[2-ethyl-4-(3-fluorophenyl)-1,3-thiazol-5-yl]-2-pyridylamine] returned a melting point of 153 to 154 °C.

Take `CCc1nc(-c2ccc(Cl)cc2)c(-c2ccnc(N)c2)s1` [Example Compound 20-7, 4-[4-(4-chlorophenyl)-2-ethyl-1,3-thiazol-5-yl]-2-pyridylamine]: the melting point lay in the range of 136 to 137 °C.
